Reference: PubChem BioAssay (NCI)
Values joined by “and” are separate entries in the source; they are usually repeats but may differ in a detail not shown here. Equal entries are not always repeated.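 Each compound was tested at five concentrations against cells in 96-well plates for 48 hours. At the GI50, growth is halved. The concentration for full growth arrest is given as TGI.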

What was measured:
Experiment in all cases: inhibition of tumour cell growth, NCI panel, 48 h
[1] = test system: DU-145 prostate
[2] = test system: HOP-62 NSCLC
[3] = test system: MDA-MB-231 breast
[4] = test system: NCI-H226 lung
[5] = test system: NCI-H522 lung
[6] = test system: SK-MEL-5 melanoma
[7] = test system: SR leukemia
[8] = test system: UACC-257 melanoma
[9] = test system: UACC-62 melanoma
[10] = test system: UO-31 renal

Row | SMILES | GI50 [1] | TGI [1] [µM] | GI50 [2] | TGI [2] [µM] | GI50 [3] | TGI [3] [µM] | GI50 [4] [µM] | TGI [4] | GI50 [5] [µM] | TGI [5] [µM] | GI50 [6] | TGI [6] [µM] | GI50 [7] [µM] | TGI [7] [µM] | GI50 [8] [µM] | TGI [8] [µM] | GI50 [9] [µM] | TGI [9] | GI50 [10] | TGI [10] [µM]
1 | O=C(NC(=S)Nc1ccc(Cl)cc1)c1ccccc1 | > 72.9 µM | > 100 | > 61.7 µM | > 100 | > 51.6 µM | > 100 | > 100 | > 100 µM | > 100 | > 100 | > 100 µM | > 100 | > 100 | > 100 | > 100 | > 100 | > 50.4 | > 100 µM | 99 µM | > 100
2 | COc1ccc(-c2nc(-c3cn(C)c4ncccc34)cs2)cc1 | > 100 µM | > 100 | > 100 µM | > 100 | 75.3 µM | > 100 | > 100 | > 100 µM | 14.9 | > 100 | 16.9 µM | > 100 | 9.7 | > 100 | > 100 | > 100 | 13 | > 100 µM | > 100 µM | > 100
3 | Cc1[nH]c(/C=C2\C(=O)Nc3ccc(F)cc32)c(C)c1C(=O)NC[C@H](O)CN1CCOCC1 | 3.65 µM | > 10 | 4.41 µM | > 10 | 4.25 µM | > 10 | 2.33 | > 10 µM | > 10 | > 10 | 4.04 µM | > 10 | 3.41 | > 10 | 8.67 | > 10 | 3.55 | > 10 µM | 1.47 µM | > 10
4 | O=C(Nc1ncc(Cc2ccccc2Cl)s1)c1ccc2c(c1)OCCO2 | 0.384 µM | 17.5 | 0.592 µM | > 82.9 | 0.38 µM | 8.76 | 1.17 | 8.45 µM | 0.261 | – | 0.334 µM | 1.81 | 0.206 | > 100 | 6.27 | > 82.1 | 0.569 | > 43.3 µM | 1.13 µM | > 100
5 | COc1ccc(-c2cn[nH]c2-c2cc(OC)c(OC)c(OC)c2)cc1N | < 0.01 µM and 0.0508 µM | > 100 | < 0.01 µM and 0.0766 µM | > 100 | < 0.01 µM and 0.063 µM | > 100 | – | > 100 µM and 56.3 µM | < 0.01 | – | < 0.01 µM and 0.0405 µM | – | < 0.01 | > 100 | 28.4 | > 100 | < 0.01 | 70.1 µM and > 100 µM | 0.191 µM and 0.118 µM | > 100
6 | Cc1cc2c(F)c(Oc3ncnn4cc(OC[C@@H](C)OC(=O)[C@H](C)N)c(C)c34)ccc2[nH]1 | 11.7 µM | 24.2 | 10.3 µM | 26.9 | 14.1 µM | 29.7 | 7.75 | 24.8 µM | 11.1 | 24.7 | 3.26 µM | 15.1 | 2.99 | 16 | 14.6 | 28.1 | 8.67 | 21.9 µM | 7.58 µM | 21.4
7 | O=C(Oc1ccc(CCl)cc1)c1ccccc1 | 0.269 µM | 0.746 | 0.17 µM | 0.333 | 0.149 µM | 0.311 | 0.185 | 0.437 µM | 0.154 | 0.316 | 0.447 µM | 1.64 | 0.0594 | 0.423 | 0.196 | 0.503 | 0.164 | 0.361 µM | 0.173 µM | 0.319
8 | Cc1ccc2c(=O)c3cccc(CC(=O)O)c3oc2c1C | > 100 µM | > 100 | > 100 µM | > 100 | > 100 µM | > 100 | > 100 | > 100 µM | > 100 | > 100 | > 100 µM | > 100 | > 100 | > 100 | > 100 | > 100 | > 100 | > 100 µM | > 100 µM | > 100
9 | CN(C)c1ccc2c3c(c(=O)oc2c1)CCC3 | – | > 100 | – | > 100 | – | > 100 | – | > 100 µM | – | > 100 | – | > 100 | – | > 100 | – | > 100 | – | > 100 µM | – | > 100
